This note sets out measurements from patent US20160289186A1, “FLUOROMETHYL-SUBSTITUTED PYRROLE CA[…]” (Grunenthal GmbH, priority 2013, published 2016).

In this test the target is T1, Human CaV2.2 channels (Homo sapiens, UniProt Q00975).
T1 construct: expressed in transfected cells; host or cells: HEK293
T1 sequence (Q00975 whole entry): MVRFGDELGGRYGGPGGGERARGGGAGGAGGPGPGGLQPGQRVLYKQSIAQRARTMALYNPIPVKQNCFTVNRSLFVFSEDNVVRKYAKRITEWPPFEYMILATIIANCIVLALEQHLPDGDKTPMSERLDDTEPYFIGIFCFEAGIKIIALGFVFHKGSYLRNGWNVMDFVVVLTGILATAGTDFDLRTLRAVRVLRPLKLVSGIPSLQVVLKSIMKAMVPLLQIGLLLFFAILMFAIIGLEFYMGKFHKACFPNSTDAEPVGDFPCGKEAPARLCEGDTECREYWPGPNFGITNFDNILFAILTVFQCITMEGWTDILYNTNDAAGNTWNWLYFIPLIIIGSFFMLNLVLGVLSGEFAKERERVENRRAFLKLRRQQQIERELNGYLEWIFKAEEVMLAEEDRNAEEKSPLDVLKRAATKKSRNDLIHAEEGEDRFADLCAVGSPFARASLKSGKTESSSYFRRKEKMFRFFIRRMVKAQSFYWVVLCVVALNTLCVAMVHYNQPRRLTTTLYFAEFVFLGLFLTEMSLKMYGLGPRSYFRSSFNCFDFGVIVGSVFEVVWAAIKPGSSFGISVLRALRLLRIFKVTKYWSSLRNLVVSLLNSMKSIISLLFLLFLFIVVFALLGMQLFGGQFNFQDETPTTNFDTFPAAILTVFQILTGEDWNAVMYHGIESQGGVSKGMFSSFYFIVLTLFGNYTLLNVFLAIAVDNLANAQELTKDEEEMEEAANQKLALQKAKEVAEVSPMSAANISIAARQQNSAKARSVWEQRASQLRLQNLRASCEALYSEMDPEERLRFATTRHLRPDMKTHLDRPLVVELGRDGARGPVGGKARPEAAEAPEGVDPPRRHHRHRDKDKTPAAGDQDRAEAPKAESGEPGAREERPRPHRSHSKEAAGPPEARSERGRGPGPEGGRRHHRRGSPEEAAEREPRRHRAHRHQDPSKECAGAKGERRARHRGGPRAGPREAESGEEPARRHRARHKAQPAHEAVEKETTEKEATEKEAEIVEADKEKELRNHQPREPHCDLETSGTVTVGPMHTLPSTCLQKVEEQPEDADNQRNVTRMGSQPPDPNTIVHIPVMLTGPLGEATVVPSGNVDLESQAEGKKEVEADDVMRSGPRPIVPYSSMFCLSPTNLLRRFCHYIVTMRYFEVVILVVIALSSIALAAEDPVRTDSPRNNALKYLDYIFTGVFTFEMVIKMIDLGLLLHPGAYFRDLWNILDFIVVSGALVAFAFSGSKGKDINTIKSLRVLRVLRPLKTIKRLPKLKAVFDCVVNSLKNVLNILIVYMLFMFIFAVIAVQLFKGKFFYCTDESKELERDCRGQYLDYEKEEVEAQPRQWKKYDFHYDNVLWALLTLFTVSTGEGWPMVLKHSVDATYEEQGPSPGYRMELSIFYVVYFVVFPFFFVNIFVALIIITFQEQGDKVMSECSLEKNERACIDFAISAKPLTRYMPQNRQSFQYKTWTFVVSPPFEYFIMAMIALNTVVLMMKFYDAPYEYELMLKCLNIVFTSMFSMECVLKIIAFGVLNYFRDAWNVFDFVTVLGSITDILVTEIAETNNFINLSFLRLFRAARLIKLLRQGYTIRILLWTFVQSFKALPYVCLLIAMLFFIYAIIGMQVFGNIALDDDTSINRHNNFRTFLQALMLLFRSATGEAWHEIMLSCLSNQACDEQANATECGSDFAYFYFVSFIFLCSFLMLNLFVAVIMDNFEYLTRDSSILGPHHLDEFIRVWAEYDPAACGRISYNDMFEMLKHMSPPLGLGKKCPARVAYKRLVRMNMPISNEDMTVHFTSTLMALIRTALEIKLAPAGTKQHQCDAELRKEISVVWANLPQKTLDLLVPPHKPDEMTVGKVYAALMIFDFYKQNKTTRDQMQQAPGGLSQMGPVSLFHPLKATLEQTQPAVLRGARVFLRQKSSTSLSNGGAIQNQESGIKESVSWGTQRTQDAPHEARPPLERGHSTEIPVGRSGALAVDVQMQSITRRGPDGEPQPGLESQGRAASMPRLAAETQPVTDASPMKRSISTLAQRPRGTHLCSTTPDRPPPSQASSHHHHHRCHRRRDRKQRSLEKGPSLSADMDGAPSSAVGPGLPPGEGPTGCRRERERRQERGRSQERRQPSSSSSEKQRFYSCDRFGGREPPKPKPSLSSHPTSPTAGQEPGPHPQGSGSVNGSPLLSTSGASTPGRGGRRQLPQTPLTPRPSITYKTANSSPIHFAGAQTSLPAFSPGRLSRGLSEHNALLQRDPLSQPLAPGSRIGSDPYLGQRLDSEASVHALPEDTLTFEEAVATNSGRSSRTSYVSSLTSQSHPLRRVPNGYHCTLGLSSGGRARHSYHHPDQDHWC
T1 sequence (P54284 whole entry, further chain): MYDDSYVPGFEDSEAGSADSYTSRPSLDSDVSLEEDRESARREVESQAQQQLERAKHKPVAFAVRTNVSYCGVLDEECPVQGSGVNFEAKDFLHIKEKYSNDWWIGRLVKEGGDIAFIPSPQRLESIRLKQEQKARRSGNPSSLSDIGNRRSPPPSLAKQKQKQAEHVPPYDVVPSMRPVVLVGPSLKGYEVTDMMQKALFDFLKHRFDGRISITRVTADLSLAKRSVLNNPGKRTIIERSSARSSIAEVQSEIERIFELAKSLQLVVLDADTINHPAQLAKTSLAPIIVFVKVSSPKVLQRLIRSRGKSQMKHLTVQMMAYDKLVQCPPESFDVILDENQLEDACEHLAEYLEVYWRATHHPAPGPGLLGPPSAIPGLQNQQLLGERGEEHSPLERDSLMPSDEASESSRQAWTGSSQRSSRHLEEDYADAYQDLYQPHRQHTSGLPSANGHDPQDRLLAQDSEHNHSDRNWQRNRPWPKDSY
T1 sequence (P54289 25-1103, further chain): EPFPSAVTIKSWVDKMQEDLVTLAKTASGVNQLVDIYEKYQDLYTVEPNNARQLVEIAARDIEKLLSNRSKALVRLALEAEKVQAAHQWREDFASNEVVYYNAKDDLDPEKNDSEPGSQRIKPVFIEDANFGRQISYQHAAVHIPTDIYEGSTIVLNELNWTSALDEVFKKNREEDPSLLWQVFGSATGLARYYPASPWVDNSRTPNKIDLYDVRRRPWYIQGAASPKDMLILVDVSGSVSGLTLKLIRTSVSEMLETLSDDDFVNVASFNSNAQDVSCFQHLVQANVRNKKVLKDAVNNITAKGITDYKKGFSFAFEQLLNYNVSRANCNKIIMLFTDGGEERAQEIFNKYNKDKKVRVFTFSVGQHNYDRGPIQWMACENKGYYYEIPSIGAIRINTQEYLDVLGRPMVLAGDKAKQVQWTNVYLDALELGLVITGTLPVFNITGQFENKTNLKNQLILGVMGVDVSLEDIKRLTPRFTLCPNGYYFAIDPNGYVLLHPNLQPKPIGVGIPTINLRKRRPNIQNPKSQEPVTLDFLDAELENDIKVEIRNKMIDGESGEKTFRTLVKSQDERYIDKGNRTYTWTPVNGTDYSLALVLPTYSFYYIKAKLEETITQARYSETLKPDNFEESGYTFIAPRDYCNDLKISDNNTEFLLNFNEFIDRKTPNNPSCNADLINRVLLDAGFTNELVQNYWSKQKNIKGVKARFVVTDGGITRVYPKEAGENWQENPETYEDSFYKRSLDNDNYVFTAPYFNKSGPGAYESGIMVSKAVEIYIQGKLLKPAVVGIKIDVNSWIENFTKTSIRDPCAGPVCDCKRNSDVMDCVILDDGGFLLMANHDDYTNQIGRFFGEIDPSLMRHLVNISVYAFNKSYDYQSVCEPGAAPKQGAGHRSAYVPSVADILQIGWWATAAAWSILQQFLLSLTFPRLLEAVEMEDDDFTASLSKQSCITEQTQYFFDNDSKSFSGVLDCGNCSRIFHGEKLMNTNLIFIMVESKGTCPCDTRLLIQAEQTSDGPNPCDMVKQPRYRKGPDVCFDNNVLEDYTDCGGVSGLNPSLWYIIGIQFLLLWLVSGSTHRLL
The test can be described thus: Fluorescent (FLIPR) assay for CaV2.2 channels using potassium depolarization to induce channel opening. It counts as cell-based. Conditions: 3 μM compound; 30 mM KCl assay buffer (inactivated channel state); HEK293 cells stably expressing human CaV2.2; read-out: Activity Category: %-Inhib (CaV2.2) @3 μM @30 mM KCl. In a few lines:
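HEK293 cells stably co-expressing human CaV2.2 with α2δ and β subunits plus Kir2.3, Fluo-4 loaded; compounds preincubated 15 min at 25 °C in 1 mM or 30 mM KCl buffer (inactivated state), pH 7.4. Depolarized by KCl addition; baseline-normalized peak fluorescence (ex 480/em 535 nm) gave inhibition.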
With `Cc1c(-c2ccc(Cl)cc2)c(C(=O)N2CC3CC2CO3)n(CC(C)C)c1C(F)(F)F` (stereo not drawn) [Example 104, [3-(4-Chlorophenyl)-4-methyl-1-(2-methyl-propyl)-5-(trifluoromethyl)-1H-pyrrol-2-yl]-(2-oxa-5-azabicyclo[2.2.1]heptan-5-yl)-methanone], the inhibition at 3 µM was over 95%.

On to `Cc1c(-c2ccc(Cl)cc2)c(C(=O)N(C)CC(C)(C)C(N)=O)n(C(C)C)c1C(F)(F)F` [Example 105, N-(2-Carbamoyl-2-methyl-propyl)-3-(4-chlorophenyl)-1-isopropyl-N,4-dimethyl-5-(trifluoromethyl)-1H-pyrrole-2-carboxylic acid amide], for which the inhibition at 3 µM fell in the range of 75 to 95%.

As to `Cc1c(-c2ccc(Cl)cc2)c(C(=O)N(C)CC(C)(C)C#N)n(C(C)C)c1C(F)(F)F` [Example 106, 3-(4-Chlorophenyl)-N-(2-cyano-2-methyl-propyl)-1-isopropyl-N,4-dimethyl-5-(trifluoromethyl)-1H-pyrrole-2-carboxylic acid amide], the inhibition at 3 µM was in the range of 75 to 95%.

Regarding `Cc1cc(CN(C)C(=O)c2c(-c3ccc(Cl)cc3)c(C)c(C(F)(F)F)n2C(C)C)no1` [Example 107, 3-(4-Chlorophenyl)-1-isopropyl-N,4-dimethyl-N-[(5-methyl-isoxazol-3-yl)-methyl]-5-(trifluoromethyl)-1H-pyrrole-2-carboxylic acid amide], the inhibition at 3 µM is over 95%.

Turning to `Cc1c(-c2ccc(Cl)cc2)c(C(=O)N(C)C(C)C)n(C(C)C)c1C(F)(F)F` [Example 108, 3-(4-Chlorophenyl)-N,1-diisopropyl-N,4-dimethyl-5-(trifluoromethyl)-1H-pyrrole-2-carboxylic acid amide], the inhibition at 3 µM is over 95%.

Take `Cc1c(-c2ccc(Cl)cc2)c(C(=O)N(C)C(C)C)n(CC(C)C)c1C(F)(F)F` [Example 109, 3-(4-Chlorophenyl)-N-isopropyl-N,4-dimethyl-1-(2-methyl-propyl)-5-(trifluoromethyl)-1H-pyrrole-2-carboxylic acid amide]: the inhibition at 3 µM lay within 75 to 95%.

With `Cc1c(-c2ccc(Cl)cc2)c(C(=O)N(C)CCS(C)(=O)=O)n(C(C)C)c1C(F)(F)F` [Example 110, 3-(4-Chlorophenyl)-1-isopropyl-N,4-dimethyl-N-(2-methylsulfonyl-ethyl)-5-(trifluoromethyl)-1H-pyrrole-2-carboxylic acid amide], the inhibition at 3 µM was 75 to 95%.

On to `Cc1c(-c2ccc(Cl)cc2)c(C(=O)N(C)Cc2ccnn2C)n(C(C)C)c1C(F)(F)F` [Example 111, 3-(4-Chlorophenyl)-1-isopropyl-N,4-dimethyl-N-[(2-methyl-2H-pyrazol-3-yl)-methyl]-5-(trifluoromethyl)-1H-pyrrole-2-carboxylic acid amide], for which the inhibition at 3 µM lay within 75 to 95%.

In the case of `Cc1c(-c2ccc(Cl)cn2)c(C(=O)N2CCOC(C)(C)C2)n(C(C)C)c1C(F)(F)F` [Example 112, [3-(5-Chloro-pyridin-2-yl)-1-isopropyl-4-methyl-5-(trifluoromethyl)-1H-pyrrol-2-yl]-(2,2-dimethyl-morpholin-4-yl)-methanone], the inhibition at 3 µM lay in the range of 40 to 75%.

`Cc1cc(CN(C)C(=O)c2c(-c3ccc(Cl)cn3)c(C)c(C(F)(F)F)n2C(C)C)no1` [Example 113, 3-(5-Chloro-pyridin-2-yl)-1-isopropyl-N,4-dimethyl-N-[(5-methyl-isoxazol-3-yl)-methyl]-5-(trifluoromethyl)-1H-pyrrole-2-carboxylic acid amide]: the inhibition at 3 µM lay within 75 to 95%.

With `Cc1c(-c2ccc(Cl)cn2)c(C(=O)N(C)Cc2ccnn2C)n(C(C)C)c1C(F)(F)F` [Example 114, 3-(5-Chloro-pyridin-2-yl)-1-isopropyl-N,4-dimethyl-N-[(2-methyl-2H-pyrazol-3-yl)-methyl]-5-(trifluoromethyl)-1H-pyrrole-2-carboxylic acid amide], the inhibition at 3 µM is 40 to 75%.

As to `Cc1c(-c2ccc(Cl)cc2)c(C(=O)N(C)C2CCNC2=O)n(C(C)C)c1C(F)(F)F` (stereo not drawn) [Example 115, 3-(4-Chlorophenyl)-1-isopropyl-N,4-dimethyl-N-(2-oxo-pyrrolidin-3-yl)-5-(trifluoromethyl)-1H-pyrrole-2-carboxylic acid amide], the inhibition at 3 µM was in the range of 75 to 95%.

With `Cc1c(-c2ccc(Cl)cn2)c(C(=O)N(C)CC(C)(C)C(N)=O)n(C(C)C)c1C(F)(F)F` [Example 116, N-(2-Carbamoyl-2-methyl-propyl)-3-(5-chloro-pyridin-2-yl)-1-isopropyl-N,4-dimethyl-5-(trifluoromethyl)-1H-pyrrole-2-carboxylic acid amide], the inhibition at 3 µM lay in the range of 40 to 75%.

Consider `Cc1c(-c2ccc(Cl)cn2)c(C(=O)N(C)CC(C)(C)C#N)n(C(C)C)c1C(F)(F)F` [Example 117, 3-(5-Chloro-pyridin-2-yl)-N-(2-cyano-2-methyl-propyl)-1-isopropyl-N,4-dimethyl-5-(trifluoromethyl)-1H-pyrrole-2-carboxylic acid amide], for which the inhibition at 3 µM was in the range of 75 to 95%.

For the compound `Cc1c(-c2ccc(Cl)cn2)c(C(=O)N(C)CCS(C)(=O)=O)n(C(C)C)c1C(F)(F)F` [Example 118, 3-(5-Chloro-pyridin-2-yl)-1-isopropyl-N,4-dimethyl-N-(2-methylsulfonyl-ethyl)-5-(trifluoromethyl)-1H-pyrrole-2-carboxylic acid amide], the inhibition at 3 µM lay in the range of 40 to 75%.

Consider `Cc1c(-c2ccc(Cl)cn2)c(C(=O)N(C)C2CCNC2=O)n(C(C)C)c1C(F)(F)F` (stereo not drawn) [Example 119, 3-(5-Chloro-pyridin-2-yl)-1-isopropyl-N,4-dimethyl-N-(2-oxo-pyrrolidin-3-yl)-5-(trifluoromethyl)-1H-pyrrole-2-carboxylic acid amide], for which the inhibition at 3 µM lay within 40 to 75%.

Regarding `Cc1c(-c2ccc(Cl)cn2)c(C(=O)N(C)C(C)C)n(C(C)C)c1C(F)(F)F` [Example 120, 3-(5-Chloro-pyridin-2-yl)-N,1-diisopropyl-N,4-dimethyl-5-(trifluoromethyl)-1H-pyrrole-2-carboxylic acid amide], the inhibition at 3 µM lay within 75 to 95%.

Consider `Cc1c(-c2ncc(Cl)cn2)c(C(=O)N2CCOC(C)(C)C2)n(C(C)C)c1C(F)(F)F` [Example 121, [3-(5-Chloro-pyrimidin-2-yl)-1-isopropyl-4-methyl-5-(trifluoromethyl)-1H-pyrrol-2-yl]-(2,2-dimethyl-morpholin-4-yl)-methanone], for which the inhibition at 3 µM fell in the range of 40 to 75%.

Turning to `Cc1c(-c2ncc(Cl)cn2)c(C(=O)N(C)Cc2ccnn2C)n(C(C)C)c1C(F)(F)F` [Example 122, 3-(5-Chloro-pyrimidin-2-yl)-1-isopropyl-N,4-dimethyl-N-[(2-methyl-2H-pyrazol-3-yl)-methyl]-5-(trifluoromethyl)-1H-pyrrole-2-carboxylic acid amide], the inhibition at 3 µM was 40 to 75%.

Take `Cc1cc(CN(C)C(=O)c2c(-c3ncc(Cl)cn3)c(C)c(C(F)(F)F)n2C(C)C)no1` [Example 123, 3-(5-Chloro-pyrimidin-2-yl)-1-isopropyl-N,4-dimethyl-N-[(5-methyl-isoxazol-3-yl)-methyl]-5-(trifluoromethyl)-1H-pyrrole-2-carboxylic acid amide]: the inhibition at 3 µM lay in the range of 75 to 95%.

Take `Cc1c(-c2ncc(Cl)cn2)c(C(=O)N(C)CC(C)(C)C#N)n(C(C)C)c1C(F)(F)F` [Example 126, 3-(5-Chloro-pyrimidin-2-yl)-N-(2-cyano-2-methyl-propyl)-1-isopropyl-N,4-dimethyl-5-(trifluoromethyl)-1H-pyrrole-2-carboxylic acid amide]: the inhibition at 3 µM lay within 40 to 75%.

Consider `Cc1c(-c2ncc(Cl)cn2)c(C(=O)N(C)CCS(C)(=O)=O)n(C(C)C)c1C(F)(F)F` [Example 127, 3-(5-Chloro-pyrimidin-2-yl)-1-isopropyl-N,4-dimethyl-N-(2-methylsulfonyl-ethyl)-5-(trifluoromethyl)-1H-pyrrole-2-carboxylic acid amide], for which the inhibition at 3 µM fell in the range of 30 to 40%.

In the case of `Cc1c(-c2ncc(Cl)cn2)c(C(=O)N(C)C(C)C)n(C(C)C)c1C(F)(F)F` [Example 128, 3-(5-Chloro-pyrimidin-2-yl)-N,1-diisopropyl-N,4-dimethyl-5-(trifluoromethyl)-1H-pyrrole-2-carboxylic acid amide], the inhibition at 3 µM lay in the range of 40 to 75%.

`Cc1c(-c2ccc(Cl)cn2)c(C(=O)N2CCN(C(=O)NC(C)(C)C)CC2)n(C(C)C)c1C(F)(F)F` [Example 129, N-tert-Butyl-4-[3-(5-chloro-pyridin-2-yl)-1-isopropyl-4-methyl-5-(trifluoromethyl)-1H-pyrrole-2-carbonyl]-piperazine-1-carboxylic acid amide]: the inhibition at 3 µM was in the range of 75 to 95%.

With `Cc1c(-c2ccc(Cl)cn2)c(C(=O)N2CC[S+]([O-])C(C)(C)C2)n(C(C)C)c1C(F)(F)F` (stereo not drawn) [Example 130, [3-(5-Chloro-pyridin-2-yl)-1-isopropyl-4-methyl-5-(trifluoromethyl)-1H-pyrrol-2-yl]-(2,2-dimethyl-1-oxo-[1,4]thiazinan-4-yl)-methanone], the inhibition at 3 µM was in the range of 40 to 75%.

In the case of `Cc1c(-c2ccc(Cl)cc2)c(C(=O)N2CCN(C(=O)NC(C)(C)C)CC2)n(C(C)C)c1C(F)(F)F` [Example 131, N-tert-Butyl-4-[3-(4-chlorophenyl)-1-isopropyl-4-methyl-5-(trifluoromethyl)-1H-pyrrole-2-carbonyl]-piperazine-1-carboxylic acid amide], the inhibition at 3 µM lay in the range of 75 to 95%.

Regarding `Cc1c(-c2ccc(Cl)cc2)c(C(=O)N(C)C(CO)CC(C)C)n(C(C)C)c1C(F)(F)F` (stereo not drawn) [Example 132, 3-(4-Chlorophenyl)-N-[1-(hydroxymethyl)-3-methyl-butyl]-1-isopropyl-N,4-dimethyl-5-(trifluoromethyl)-1H-pyrrole-2-carboxylic acid amide], the inhibition at 3 µM fell in the range of 40 to 75%.
